According to the CheMixHub viscosity set:

Test: xn = mol fraction of the nth substance listed

CCCCNCCCC + CC(C)CO
viscosity [mPa·s], 101.33 kPa
Details | 298.15 K | 308.15 K | 318.15 K
x1 = 0.0659 | 3.147 | 2.311 | 1.743
x1 = 0.0962 | 3.01 | 2.218 | 1.683
x1 = 0.1558 | 2.74 | 2.038 | 1.562
x1 = 0.1967 | 2.557 | 1.918 | 1.482
x1 = 0.2681 | 2.25 | 1.708 | 1.336
x1 = 0.3132 | 2.076 | 1.591 | 1.256
x1 = 0.3956 | 1.791 | 1.394 | 1.118
x1 = 0.4699 | 1.576 | 1.245 | 1.011
x1 = 0.5552 | 1.379 | 1.11 | 0.914
x1 = 0.6322 | 1.234 | 1.007 | 0.838
x1 = 0.7567 | 1.05 | 0.874 | 0.743
x1 = 0.8163 | 0.985 | 0.824 | 0.708
x1 = 0.8647 | 0.93 | 0.787 | 0.678
x1 = 0.8978 | 0.901 | 0.766 | 0.662
x1 = 0.9162 | 0.882 | 0.751 | 0.651

CCCC(=O)O + CC#N
viscosity [mPa·s], 101 kPa
Details | x1 = 0.0598 | x1 = 0.1252 | x1 = 0.1971 | x1 = 0.2763 | x1 = 0.3641 | x1 = 0.4621 | x1 = 0.572 | x1 = 0.6961 | x1 = 0.8375
298.15 K | 0.3944 | 0.4377 | 0.5044 | 0.5968 | 0.717 | 0.8653 | 1.039 | 1.229 | 1.415
308.15 K | 0.3452 | 0.3849 | 0.4455 | 0.5285 | 0.6349 | 0.7632 | 0.9084 | 1.058 | 1.187
318.15 K | 0.3146 | 0.3681 | 0.4272 | 0.4922 | 0.5632 | 0.6398 | 0.7209 | 0.8039 | 0.8836

CCOC(=O)C(=O)OCC + CC(C)=O
303.15 K, 101 kPa
Details | viscosity [mPa·s]
x1 = 0.0571 | 0.381
x1 = 0.1199 | 0.487
x1 = 0.1893 | 0.599
x1 = 0.2664 | 0.715
x1 = 0.3527 | 0.844
x1 = 0.4497 | 0.979
x1 = 0.5602 | 1.123
x1 = 0.6858 | 1.274
x1 = 0.8308 | 1.453

CCCC(=O)O + Cc1cccc(O)c1
viscosity [mPa·s], 101 kPa
Details | x1 = 0.1119 | x1 = 0.2209 | x1 = 0.3191 | x1 = 0.4306 | x1 = 0.5314 | x1 = 0.6298 | x1 = 0.7257 | x1 = 0.8194 | x1 = 0.9108
298.15 K | 10.28 | 8.292 | 6.808 | 5.408 | 4.362 | 3.51 | 2.822 | 2.272 | 1.845
308.15 K | 6.028 | 5.153 | 4.446 | 3.724 | 3.137 | 2.619 | 2.167 | 1.782 | 1.471
318.15 K | 4.743 | 4.158 | 3.662 | 3.14 | 2.707 | 2.316 | 1.957 | 1.621 | 1.293

CC(O)=S + c1ccccc1
298.1 K, 101 kPa
Details | viscosity [mPa·s]
x1 = 0.2 | 0.584
x1 = 0.4 | 0.584
x1 = 0.5 | 0.589
x1 = 0.6 | 0.599
x1 = 0.8 | 0.631

CCCC(=O)O + CNC=O
viscosity [mPa·s], 100 kPa
Details | x2 = 0.1187 | x2 = 0.1967 | x2 = 0.2806 | x2 = 0.3708 | x2 = 0.5026 | x2 = 0.6111 | x2 = 0.6888 | x2 = 0.7711 | x2 = 0.9041
303.15 K | 1.415 | 1.434 | 1.455 | 1.476 | 1.504 | 1.524 | 1.537 | 1.55 | 1.57
308.15 K | 1.275 | 1.296 | 1.317 | 1.34 | 1.37 | 1.393 | 1.408 | 1.423 | 1.447
313.15 K | 1.136 | 1.159 | 1.183 | 1.208 | 1.242 | 1.269 | 1.286 | 1.305 | 1.334
318.15 K | 0.9979 | 1.024 | 1.052 | 1.08 | 1.12 | 1.152 | 1.174 | 1.197 | 1.233

CCCCNCCCC + CCCCCCCO
viscosity [mPa·s], 101.33 kPa
Details | x1 = 0.0975 | x1 = 0.197 | x1 = 0.2901 | x1 = 0.3789 | x1 = 0.4808 | x1 = 0.5861 | x1 = 0.685 | x1 = 0.7862 | x1 = 0.8807
303.15 K | 4.226 | 3.629 | 3.099 | 2.63 | 2.15 | 1.741 | 1.432 | 1.171 | 0.9696
313.15 K | 3.151 | 2.716 | 2.337 | 2.013 | 1.685 | 1.393 | 1.169 | 0.9814 | 0.8316

CC(=O)OCC(C)C + Cc1ccc(C)cc1
viscosity [mPa·s], 101 kPa
Details | x1 = 0.1104 | x1 = 0.1976 | x1 = 0.2789 | x1 = 0.376 | x1 = 0.4687 | x1 = 0.5742 | x1 = 0.6833 | x1 = 0.7765 | x1 = 0.8703 | x1 = 0.9481
303.15 K | 0.569 | 0.572 | 0.577 | 0.582 | 0.588 | 0.596 | 0.605 | 0.614 | 0.622 | 0.63
313.15 K | 0.511 | 0.512 | 0.514 | 0.516 | 0.519 | 0.526 | 0.536 | 0.547 | 0.558 | 0.57

COCCO + CC(=O)N(C)C
viscosity [mPa·s], 101 kPa
Details | 298.15 K | 308.15 K | 318.15 K
x2 = 0.0301 | 1.535 | 1.254 | 1.048
x2 = 0.06 | 1.528 | 1.25 | 1.046
x2 = 0.0871 | 1.52 | 1.247 | 1.045
x2 = 0.125 | 1.507 | 1.239 | 1.041
x2 = 0.1767 | 1.488 | 1.228 | 1.034
x2 = 0.225 | 1.466 | 1.214 | 1.026
x2 = 0.2902 | 1.432 | 1.192 | 1.011
x2 = 0.364 | 1.39 | 1.164 | 0.991
x2 = 0.4602 | 1.329 | 1.122 | 0.96
x2 = 0.52 | 1.289 | 1.092 | 0.938
x2 = 0.5611 | 1.26 | 1.07 | 0.921
x2 = 0.62 | 1.216 | 1.038 | 0.897
x2 = 0.6654 | 1.181 | 1.011 | 0.876
x2 = 0.725 | 1.135 | 0.977 | 0.849
x2 = 0.7732 | 1.099 | 0.949 | 0.827
x2 = 0.825 | 1.059 | 0.919 | 0.803
x2 = 0.8847 | 1.014 | 0.885 | 0.775
x2 = 0.9501 | 0.965 | 0.847 | 0.746

COCCO + NCCO
viscosity [mPa·s], 101.3 kPa
Details | x2 = 0.122 | x2 = 0.348 | x2 = 0.916
298.15 K | 2.065 | 3.765 | –
308.15 K | – | – | 10.55

C[Si](C)(C)O[Si](C)(C)O[Si](C)(C)O[Si](C)(C)O[Si](C)(C)O[Si](C)(C)C + C[Si](C)(C)O[Si](C)(C)O[Si](C)(C)O[Si](C)(C)C
Details | viscosity [mPa·s]
298.15 K, 101 kPa, x1 = 0.413 | 1.738

CCCC(C)O (configuration not stated) + CCCCCCC
101 kPa
Details | viscosity [mPa·s]
293.8 K, x1 = 0.5 | 0.771
295.1 K, x1 = 0.051 | 0.477
